Data published in patent US20100292233A1, “DIHYDRO-1H-PYRROLO[1,2-A]INDOL-1-YL CARBOXYLIC ACID DERIVATIVES WHICH ACT AS S1P1 AGONISTS” (ARENA PHARMACEUTICALS, INC., priority 2008, published 2010).

Assays:
NOD/Ltj mice = assay: Cyclophosphamide induced type 1 diabetes in mice; type: in vivo, mouse; details: oral, once a day from day 0 until day 25; 3 and 10 mg/kg; FIG. 6
Description: Animals: Baseline blood glucose measurements were taken from 9-10 week old female NOD/Ltj mice (Jackson Laboratory, Bar Harbor, Me.) to ensure that they are normoglycemic (blood glucose is 80-120 mg/dL) prior to initiation of the experiment. Blood glucose was measured from tail bleeds using a One Touch Ultra® kit and test strips (LifeScan, Milpitas, Calif.).
Cyclophosphamide induction of Type 1 diabetes: On day 0 and day 14, normoglycemic NOD mice were injected intraperitoneally with 4 mg cyclophosphamide monohydrate (200 mg/kg) dissolved in 0.9% saline. If mice were diabetic (blood glucose is >250 mg/dL) they were not given a booster dose of cyclophosphamide on day 14.
Drug Treatment: Mice were dosed orally, with vehicle or test compound, once a day from day 0 until day 25. Compounds were suspended in 0.5% methyl cellulose vehicle using a sonicator to ensure uniform suspension. Mice were weighed twice weekly and were dosed according to weight. Dosing volume is 5 mL/kg. Test compound was dosed at 3 mg/kg and 10 mg/kg. Blood glucose was measured twice weekly. After dosing was completed at day 25, the mice continued to be monitored and blood glucose measurements were taken once a week for 3 weeks.

C57BL/6 mice [1] = assay: Mouse skin allograft survival; type: in vivo; details: oral, once a day; 1, 3 and 10 mg/kg; FIG. 5
Description: Animals: Female BALB/cJ mice (6 to 7 weeks of age at start of study) (Jackson Laboratory, Bar Harbor, Me.) were housed four per cage and maintained in a humidity—(40-60%) and temperature—(68-72° F.) controlled facility on a 12 hr:12 hr light/dark cycle (lights on at 6:30 am) with free access to food (Harlan Teklad, Orange, Calif., Rodent Diet 8604) and water. Female C57BL/6 mice (8 to 10 weeks of age at start of study) (Jackson Laboratory, Bar Harbor, Me.) were similarly housed and maintained. Mice were allowed one week of habituation to the animal facility before testing. […]
Clinical scoring: Skin allografts were inspected and digital images recorded daily until rejection, which was defined as the first day on which more than 80% of the graft is necrotic. […] In an optional related study, on posttransplantation day 5 isolated lymphocytes from peripheral lymph nodes and spleen were counted and characterized for activation markers (e.g., T-cell activation markers) by flow cytometry. Also on day 5, grafts were removed from transplanted recipients, cut into small fragments, digested with collagenase and sedimented over Ficoll-Paque (Pharmacia Biotech, Uppsala, Sweden) to isolate graft-infiltrating lymphocytes, which were counted and characterized for activation markers (e.g., T-cell activation markers) by flow cytometry. […]

C57BL/6 mice [2] = assay: MOG-induced EAE in mice; type: in vivo, mouse; details: oral, once a day from day 3 until day 21; 1, 3 and 10 mg/kg; FIG. 3
Description: Animals: Female C57BL/6 mice (8 to 10 weeks of age at start of study) (Jackson Laboratory, Bar Harbor, Me.) were housed four per cage and maintained in a humidity—(40-60%) and temperature—(68-72° F.) controlled facility on a 12 hr:12 hr light/dark cycle (lights on at 6:30 am) with free access to food (Harlan Teklad, Orange, Calif., Rodent Diet 8604) and water. Mice were allowed one week of habituation to the animal facility before testing.
Induction of EAE: Mice were immunized subcutaneously, 50 μL per hind flank, with a total of 100 μg MOG35-55 peptide emulsified 1:1 with Complete Freund's adjuvant containing 4 mg/mL heat-killed Mycobacterium tuberculosis. Mice also received 200 ng pertussis toxin intraperitoneally on the day of immunization and 48 hours later.
Clinical scoring: Severity of disease symptoms was scored as follows (in increasing order of severity): 0=normal; 1=limp tail OR hind limb weakness; 2=limp tail AND limb weakness/weakness of 2 or more limbs; 3=severe limb weakness or single limb paralysis; 4=paralysis of 2 or more limbs; 5=death.
Drug treatment: Mice were dosed orally, with vehicle or test compound, once a day from day 3 until day 21. Dosing volume is 5 mL/kg. […] Mice were monitored daily from day 7 onward for disease symptoms. After the last dose on day 21, disease progression was monitored daily for 2 more weeks.

Lewis rats = assay: Collagen-induced arthritis in rats (ankle diameter); type: in vivo; details: rat, p.o., q.d., day 0 through day 16; 1, 3 and 10 mg/kg; FIG. 4
Description: Female Lewis rats were used in this study. Acclimated animals were anesthetized with isoflurane and given the first collagen injection (day 0). On day 6, they were anesthetized again for the second collagen injection. Collagen was prepared by making a 4 mg/mL solution in 0.01 N acetic acid. Equal volumes of collagen and incomplete Freund's adjuvant were emulsified by hand mixing until a bead of this material held its form when placed in water. Each animal received 300 μL of the mixture each time, spread over 3 subcutaneous sites on the back.
Treatment (p.o., q. d., 5 mL/kg dosing volume) began on day 0 and continued through day 16 with vehicle or compounds given at 24 h intervals. Rats were weighed on days 0, 3, 6 and 9 through 17 and caliper measurements of the ankles taken on days 9 through 17. The 2nd enantiomer of Compound 2 (isolated after resolution of compound 2 by HPLC, with a retention time of 14.9 min per the conditions reported in Example 1.25) was dosed at 1, 3 and 10 mg/kg.

## N#Cc1cc(OC(F)(F)F)cc(-c2nc(-c3ccc4c(c3)cc3n4CCC3CC(=O)O)no2)c1 (stereo not drawn) [2nd enantiomer of Compound 2, 2-(7-(5-(3-Cyano-5-(trifluoromethoxy)phenyl)-1,2,4-oxadiazol-3-yl)-2,3-dihydro-1H-pyrrolo[1,2-a]indol-1-yl)acetic Acid]
NOD/Ltj mice
  activity in the mouse type I diabetes assay (blood glucose vs vehicle): exhibited activity in the mouse type I diabetes assay
C57BL/6 mice [1]
  activity in the mouse skin allograft assay (time of rejection vs vehicle): exhibited activity in the mouse skin allograft assay
C57BL/6 mice [2]
  activity in the mouse EAE assay (severity of disease symptoms vs vehicle): exhibited activity in the mouse EAE assay
Lewis rats
  reduction of mean ankle diameter vs vehicle: exhibited activity for reducing mean ankle diameter
